# Structures can show the parent of a compound that is named as a salt. Where two headings read alike, the source gives them in different places.
# Columns and labels:
# [1] = target: T1, postsynaptic α-adrenoreceptor (rat anococcygeus muscle) (Rattus norvegicus, UniProt P43140); experiment: Postsynaptic α-adrenoreceptor antagonism vs noradrenaline contractions, isolated rat anococcygeus muscle; format: cell-based
# T1 construct: the rat anococcygeus muscle is used to establish postsynaptic α-adrenoreceptor activity; from tissue; host or cells: isolated rat anococcygeus muscle
# T1 sequence (P43140 1-466): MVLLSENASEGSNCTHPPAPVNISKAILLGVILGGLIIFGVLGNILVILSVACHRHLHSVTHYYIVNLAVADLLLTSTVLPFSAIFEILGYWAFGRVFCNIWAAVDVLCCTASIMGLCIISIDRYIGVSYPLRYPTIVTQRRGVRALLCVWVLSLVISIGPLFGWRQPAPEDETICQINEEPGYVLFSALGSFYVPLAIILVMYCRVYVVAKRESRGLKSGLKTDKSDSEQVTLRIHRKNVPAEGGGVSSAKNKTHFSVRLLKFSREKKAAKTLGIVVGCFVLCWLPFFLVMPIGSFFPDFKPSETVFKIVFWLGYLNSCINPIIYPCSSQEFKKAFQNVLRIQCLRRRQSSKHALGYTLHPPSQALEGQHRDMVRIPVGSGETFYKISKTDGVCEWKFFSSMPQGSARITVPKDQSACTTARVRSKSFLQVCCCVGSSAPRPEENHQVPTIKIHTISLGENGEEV
# From the text: This in vitro model is particularly useful as an initial screen for studying presynaptic activity in isolation since the physiological nature of the vas deferens tissue is such that the postsynaptic receptors located therein are particularly inaccessible to exogenous agents. In consequence an alternative tissue, the rat anococcygeus muscle is used to establish postsynaptic α-adrenoreceptor activity. Antagonism of noradrenaline contractions is used to determine pA2 values at postsynaptic α-adrenoreceptors.
# [2] = system: presynaptic α-adrenoreceptor (vas deferens, pithed rat); experiment: Presynaptic α-adrenoreceptor antagonism in the pithed rat (reversal of clonidine block on vas deferens, i.v.); details: for i.v. dose of antagonist causing 50% reversal of clonidine block on vas deferens: Table 3, cumulative i.v. dosing, clonidine 100 μg/kg i.v., mean of a minimum of 4 rats
# Description: The test drugs were injected intravenously in a cumulative dosing schedule and their abilities to reverse the inhibition of hypogastric nerve stimulation reflected their presynaptic antagonism.
# [3] = target: T2, presynaptic α2-adrenoreceptor (rat vas deferens) (Rattus norvegicus, UniProt P22909); experiment: Presynaptic α-adrenoreceptor antagonism vs clonidine, isolated rat vas deferens (0.1 Hz stimulation); format: cell-based
# T2 construct: on the rat vas deferens stimulated at a frequency of 0.1 Hz; from tissue; host or cells: isolated rat vas deferens
# T2 sequence (P22909 1-465): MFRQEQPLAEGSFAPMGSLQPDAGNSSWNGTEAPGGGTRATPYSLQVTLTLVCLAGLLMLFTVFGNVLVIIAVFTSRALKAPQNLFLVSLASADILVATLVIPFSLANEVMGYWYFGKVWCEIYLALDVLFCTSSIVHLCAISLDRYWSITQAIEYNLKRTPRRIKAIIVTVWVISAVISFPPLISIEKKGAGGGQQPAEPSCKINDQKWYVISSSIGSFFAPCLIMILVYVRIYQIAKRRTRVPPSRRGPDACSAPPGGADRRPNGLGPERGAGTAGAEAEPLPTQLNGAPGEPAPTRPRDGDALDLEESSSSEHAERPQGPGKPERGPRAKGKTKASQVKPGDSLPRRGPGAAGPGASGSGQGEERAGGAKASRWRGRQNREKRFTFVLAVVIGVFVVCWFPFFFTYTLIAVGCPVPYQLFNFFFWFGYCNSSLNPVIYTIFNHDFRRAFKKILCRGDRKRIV
# [4] = system: postsynaptic α-adrenoreceptor (pithed rat); experiment: Postsynaptic α-adrenoreceptor agonist activity in the pithed rat (diastolic blood pressure); details: for i.v. dose causing 50 mmHg increase in diastolic blood pressure: Table 5, naive pithed rats
# Description: In vivo presynaptic α-adrenoreceptor antagonist activity was determined using the methods outlined in section 2.
# [5] = target: T3, postsynaptic α-adrenoreceptor (anococcygeus muscle) (Rattus norvegicus, UniProt P43140); experiment: Postsynaptic α-adrenoreceptor agonist activity, isolated anococcygeus muscle; format: cell-based; details: Table 4; negative log of molar concentration giving 50% maximum contraction; mean of a minimum of 3 experiments; read-out: Postsynaptic agonism pD2 (anococcygeus) (converted)
# T3 construct: compound giving 50% maximum contraction in this instance, of the anococcygeus muscle; from tissue; host or cells: isolated anococcygeus muscle (rat)
# T3 sequence (P43140 1-466): T1 sequence (P43140 1-466)
compound,measurement,setting,value
"Clc1ccc2c(c1)CC(C1=NCCN1)O2 (stereo not drawn) [Example 5, 2-[2-(5-chloro-2,3-dihydrobenzofuranyl)]-2-imidazoline hydrochloride]",Kb,"[1]; Table 2, isolated rat anococcygeus, mean of a minimum of 5 experiments, read-out: Postsynaptic antagonism pA2 vs Noradrenaline (anococcygeus) (converted)",631 nM
same,i.v. dose of antagonist causing 50% reversal of clonidine block on vas deferens,[2],0.102 mg/kg
same,relative potency against in vivo presynaptic α-adrenoreceptor stimulant effects of clonidine,[2]; compound of Example 5 compared with phentolamine,approximately equipotent
same,potency relative to yohimbine in pithed rats,"[2]; vs yohimbine, i.v. (Table 3)",approximately 8 times
same,Kb,[3],6.31 nM
same,Pre/post synaptic ratio,[3]; antagonism vs clonidine (rat vas deferens) to antagonism vs noradrenaline (rat anococcygeus),100
"Cc1ccc(N(CC2=NCCN2)c2cccc(O)c2)cc1 [Phentolamine mesylate, reference compound]",i.v. dose of antagonist causing 50% reversal of clonidine block on vas deferens,[2],0.12 mg/kg
"COC(=O)[C@@H]1[C@H]2C[C@H]3c4[nH]c5ccccc5c4CCN3C[C@@H]2CC[C@@H]1O [Yohimbine HCl, reference compound]",i.v. dose of antagonist causing 50% reversal of clonidine block on vas deferens,[2],0.86 mg/kg
"Clc1cccc(Cl)c1N=C1NCCN1 [Clonidine, reference compound]",i.v. dose causing 50 mmHg increase in diastolic blood pressure,[4],0.003 mg/kg
"CN1CCN2c3ccccc3Cc3ccccc3C2C1 (stereo not drawn) [Mianserin HCl, reference compound]",i.v. dose of antagonist causing 50% reversal of clonidine block on vas deferens,[2],> 4.4 mg/kg
"c1ccc2oc(C3=NCCN3)cc2c1 [Compound A, 2-(2-benzofuranyl)-2-imidazoline, reference compound]",Kb,"[1]; Table 4, rat anococcygeus muscle, read-out: postsynaptic antagonist pA2 (rat anococcygeus muscle) (converted)",5750 nM
same,Kb,"[3]; Table 4, isolated rat vas deferens, mean of a minimum of 3 experiments",832 nM
"CN1CCN2c3ccccc3Cc3ccccc3C2C1 (stereo not drawn) [Mianserin, reference compound]",maximum reversal of the inhibitory effects of clonidine on hypogastric nerve stimulation,[2]; cumulative intravenous dose of 4.4 mg/kg,36%
"c1ccc2c(c1)CC(C1=NCCN1)O2 (stereo not drawn) [Example 6, 2-[2-(2,3-dihydrobenzofuranyl)]-2-imidazoline hydrochloride]",i.v. dose causing 50 mmHg increase in diastolic blood pressure,[4],0.020 mg/kg
same,potency as postsynaptic α-adrenoreceptor agonist relative to phenylephrine,"[4]; vs phenylephrine, conclusion of section 4",slightly more potent than phenylephrine
same,EC50,[5],501 nM
same,i.v. dose causing 50% reversal of clonidine block on vas deferens,[2]; Table 5,0.030 mg/kg
same,Kb,[3],3.16 nM
same,presynaptic α-adrenoreceptor antagonist properties,"[3]; qualitative, b182: in both isolated tissues and intact animals",displays presynaptic α-adrenoreceptor antagonist properties
same,potency as presynaptic α2 antagonist relative to the analogous dehydro compound,"[3]; vs dehydro compound (Compound A), isolated vas deferens",more than 200 times
"CNC[C@H](O)c1cccc(O)c1 [Phenylephrine, reference compound]",i.v. dose causing 50 mmHg increase in diastolic blood pressure,[4],0.030 mg/kg

# From patent US4411908A, “Imidazoline derivatives as presynaptic α2 -adrenoreceptor antagonists” (priority 1981, dated 1983)
